Here are results for one molecule from patent US20260250247A1, “NOVEL INDOLINE DERIVATIVE AND USE THEREOF” (CK REGEON INC., priority 2023, published 2026).

For the experiment, the system named is 3T3-L1 pre-adipocytes. Description: Inhibition of adipocyte differentiation and lipid accumulation, Oil Red O. The class given is cell-based. The note with it: Mus musculus, 192 h; 3T3-L1, compound 1 μM, MDI-induced differentiation for 8 days, Oil Red O eluted, absorbance 544 nm; read-out: lipid accumulation rate. As to the method:
3T3-L1 cells were seeded in a 6-well plate at a density of […] cells per well. The cells were grown to 100% confluency in Dulbecco's modified Eagle's medium (DMEM) supplemented with 10% bovine calf serum (BCS; GIBCO). Two days after reaching 100% confluency, differentiation was induced with or without treatment with the indoline compound at a concentration of 1 μM in DMEM containing 10% fetal bovine serum (FBS; GIBCO) and MDI (520 μM methylisobutylxanthine (IBMX; Sigma-Aldrich), 1 μM dexamethasone (Sigma-Aldrich), and 5 μM insulin (GIBCO)). On day 3, the medium was replaced with DMEM containing 10% FBS and 5 μM insulin with or without the indoline compound, and then with a fresh identical medium every 2 days. After differentiation for 8 days, the culture medium was removed, and the cells were washed with PBS and then fixed with 10% formaldehyde for 1 hour. After removing the 10% formaldehyde, the cells were washed thoroughly with distilled water. After that, 60% isopropanol was added and immediately then removed. After washing with distilled water, lipid droplets were stained with an Oil Red O dye solution for 20 minutes and then washed with distilled water. The cells were counterstained with Mayer's hematoxylin. Oil Red O images were visualized using a bright-field microscope (Nikon TE-2000U). To quantify the accumulated lipids, Oil Red O was eluted by adding isopropanol, and absorbance was measured spectrophotometrically at 544 nm using a multi-plate reader.
As A3051 (KY19382) and A3334, self-developed and synthesized materials were used. As BIO, or GSK 3 Inhibitor IX, also known as 6-bromoindirubin-3′-oxime, HY-10580 was purchased commercially.
In FIG. 2, the undifferentiated group (Un Diff) refers to undifferentiated adipocytes, or preadipocytes that had not been induced to differentiate, and the differentiated group (Diff) refers to fully differentiated adipocytes.

Consider `N#Cc1ccc2c(c1)/C(=C1/Nc3ccccc3C1=O)C(=O)N2` [5-cyanoindirubin], for which the activity at 1 µM is 79%.
